The values below come from patent publication US20260042747A1, “KIT INHIBITORS, COMPOUNDS, PHARMACEUTICAL COMPOSITIONS, AND METHODS OF USE THEREOF” (Alivexis, Inc., priority 2022, published 2026).

Where a name gives a salt, the structure may show the parent alone.

The assay has as its target recombinant human KIT tyrosine kinase protein (Homo sapiens (Human), UniProt P10721). As to the kind of experiment: KIT tyrosine kinase assay (ADP-Glo). Type of assay: biochemical. How it is done:
An in vitro assay utilizing the recombinant human KIT tyrosine kinase protein was developed to measure compound inhibition of KIT. KIT tyrosine kinase activity was measured by the ADP-Glo Kinase Assay system with poly […]) peptide substrate. Kinase Assay was performed in white 384-well plates and the luminescence was measured by Victor X5 Multilabel Counter (Perkin Elmer). Recombinant intracellular domain of human KIT protein was purchased from Carna Biosciences (Kobe, Japan). Poly […]) peptide was purchased from Sigma-Aldrich (St. Louis, Missouri, USA). ADP-Glo Kinase Assay reagent was purchased from Promega (Madison, Wisconsin, USA). Each test compound was dissolved in 100% DMSO to prepare 10 mM stock solutions. […] After the preincubation, 3 μL of substrate/ATP mixture was added and incubated for 1 hour at room temperature. The tyrosine phosphorylation by KIT kinase was quantified by ADP-Glo kinase assay kit following the manufacturer's protocol. Briefly, the phosphorylation reaction was terminated by adding 10 μL ADP-Glo reagent and incubated for 60 minutes at room temperature. 20 μL of Kinase Detection Reagent was added to each well and luminescence was measured by plate reader. […] Half maximal inhibitory concentration (IC50) was calculated by a Four […] Logistic Regression model using GraphPad Prism (GraphPad Software). The value without recombinant KIT protein and without test compound was used as a negative control (assay background).

recombinant human KIT tyrosine kinase protein, sequence (P10721 546-976): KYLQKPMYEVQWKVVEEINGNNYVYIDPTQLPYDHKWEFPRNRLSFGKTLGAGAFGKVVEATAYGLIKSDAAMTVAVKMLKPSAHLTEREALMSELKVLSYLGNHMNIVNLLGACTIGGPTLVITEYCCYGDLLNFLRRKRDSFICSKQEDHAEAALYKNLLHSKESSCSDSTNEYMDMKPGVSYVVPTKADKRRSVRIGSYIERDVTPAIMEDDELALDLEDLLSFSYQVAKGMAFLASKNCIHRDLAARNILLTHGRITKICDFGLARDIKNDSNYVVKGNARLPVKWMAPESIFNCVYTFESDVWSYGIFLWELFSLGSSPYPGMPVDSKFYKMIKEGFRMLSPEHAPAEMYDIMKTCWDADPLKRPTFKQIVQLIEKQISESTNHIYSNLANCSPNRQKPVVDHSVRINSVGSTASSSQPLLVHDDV

On to `CN1CCC(N(C)c2ccc(CNC(=O)c3ccc4c(c3)[nH]c(=O)n4C)cn2)CC1` [Compound 24, 1-Methyl-N-((6-(methyl(1-methylpiperidin-4-yl)amino)pyridin-3-yl)methyl)-2-oxo-2,3-dihydro-1H-benzimidazole-5-carboxamide], for which the IC50 (Table 98) was found to be 340 nM.
As for `CN(Cc1ccncn1)c1ccc(CNC(=O)c2ccc3c(c2)[nH]c(=O)n3C)cn1` [Example 81], under “Table 98”, the IC50 came out at 150 nM.
For the compound `CC(C)N(C)c1ccc(C(CO)NC(=O)c2ccc3c(c2)[nH]c(=O)n3C)cn1` (stereo not drawn) [Example 114b, N-(2-hydroxy-1-(6-(Isopropyl(methyl)amino)pyridin-3-yl)ethyl)-1-methyl-2-oxo-2,3-dih ydro-1H-benzimidazole-5-carboxamide], the 50% inhibitory concentration (IC50) (Table 99) was 317 nM.
Consider `CN1CCN(Cc2cccc(N(C)c3ccc(CNC(=O)c4ccc5c(c4)[nH]c(=O)n5C)cn3)c2)CC1` [Compound 26, 1-Methyl-N-((6-(methyl(3-((4-methylpiperazin-1-yl)methyl)phenyl)amino)pyridin-3-yl)methyl)-2-oxo-2,3-dihydro-1H-benzimidazole-5-carboxamide trifluoroacetate], for which, under “Table 98”, the IC50 worked out at 270 nM.
For `Cn1c(=O)[nH]c2cc(C(=O)NCc3ccc(Oc4ccc(Cl)c(F)c4)nc3)ccc21` [Example 38], the IC50 (Table 98) came to 60 nM.
Regarding `Cn1c(=O)[nH]c2cc(C(=O)NCc3ccc(OC4CC(F)(F)C4)nc3)ccc21` [Example 118], the IC50 (Table 99) turned out to be 632 nM.
Turning to `Cn1c(=O)[nH]c2cc(C(=O)NCc3ccc(N(C)[C@H]4C[C@H](C(F)(F)F)C4)nc3)ccc21` [Example 87], the half-maximal inhibitory concentration (IC50) (Table 98) came out at 68 nM.
On to `CC(NC(=O)c1ccc2c(c1)[nH]c(=O)n2C)c1ccc(Oc2ccc(F)c(F)c2)nc1` (stereo not drawn) [Example 51], for which, for the setting “Table 98”, the IC50 stood at 210 nM.
As for `Cn1c(=O)[nH]c2cc(C(=O)NCc3cnc4c(c3)ncn4-c3ccccc3F)ccc21` [Example 101], the IC50 (Table 98) is 3300 nM.
As to `Cn1c(=O)[nH]c2cc(C(=O)NCc3ccc(Oc4c(F)cccc4F)nc3)ccc21` [Example 40], the IC50 (Table 98) came out at 39 nM.
On to `CC(C)N(C)c1cnc(CNC(=O)c2ccc3c(c2)[nH]c(=O)n3C)cn1` [Example 94], for which, where the note is “Table 98”, the IC50 amounted to 120 nM.
Still for that read-out and setting: next, `Cn1c(=O)[nH]c2cc(C(=O)NCc3ccc(Oc4cc(F)ccc4F)nc3)ccc21` [Example 41]: 36 nM.
Take `Cn1c(=O)[nH]c2cc(C(=O)NCc3ccc(NC4CCC(F)(F)CC4)nc3)ccc21` [Example 132]: the concentration for half-maximal inhibition (IC50) (Table 99) came to 131 nM.
Take `CC(NC(=O)c1ccc2c(c1)[nH]c(=O)n2C)c1ccc(Oc2ccc(Cl)cc2F)nc1` (stereo not drawn) [Example 52]: the half-inhibitory concentration (IC50) (Table 98) turned out to be 24 nM.
On to `C[C@H](NC(=O)c1ccc2c(c1)[nH]c(=O)n2C)c1ccc(Oc2cccc(F)c2F)nc1` [Example 55], for which the half-maximal inhibitory concentration (IC50) (Table 98) is 37 nM.
On to `Cn1c(=O)[nH]c2cc(C(=O)NCc3ccc(Oc4ccc(F)c(F)c4)nc3)ccc21` [Example 37], for which the IC50 (Table 98) was determined as 310 nM.
For the compound `COC(=O)C(NC(=O)c1ccc2c(c1)[nH]c(=O)n2C)c1ccc(N(C)C(C)C)nc1` (stereo not drawn) [Example 114a, Methyl 2-(6-(isopropyl(methyl)amino)pyridin-3-yl)-2-(1-methyl-2-oxo-2,3-dihydro-1H-benzimidazole-5-carboxamido)acetate], for the setting “Table 99”, the half-inhibitory concentration (IC50) stood at 108 nM.
For `CN(c1ccc(CNC(=O)c2ccc3c(c2)[nH]c(=O)n3C)cn1)C1CCOCC1` [Example 60], the half-inhibitory concentration (IC50) (Table 98) came out at 140 nM.
With `Cc1cc(CNC(=O)c2ccc3c(c2)[nH]c(=O)n3C)cnc1Oc1ccccc1` [Example 43], the half-inhibitory concentration (IC50) (Table 98) worked out at 140 nM.
Consider `CN(c1ccc(F)cc1)c1ccc(CNC(=O)c2ccc3[nH]c(=O)[nH]c3c2)cn1` [Example 56], for which the IC50 (Table 98) was determined as 29 nM.
With `Cn1c(=O)[nH]c2cc(C(=O)NCc3ccc(N(c4ccc(F)cc4)C4CC4)nc3)ccc21` [Compound 23, N-((6-(Cyclopropyl(4-fluorophenyl)amino)pyridin-3-yl)methyl)-1-methyl-2-oxo-2,3-dihy dro-1H-benzimidazole-5-carboxamide], the 50% inhibitory concentration (IC50) (Table 98) amounted to 78 nM.
Regarding `CN(c1ccc(CNC(=O)c2ccc3c(c2)[nH]c(=O)n3C)cn1)C1CCC2(CC1)COC2` [Example 123], where the note is “Table 99”, the IC50 stood at 126 nM.
In the case of `Cn1c(=O)[nH]c2cc(C(=O)NCc3cnc(Oc4ccc(F)cc4)cn3)ccc21` [Example 49], the IC50 (Table 98) came out at 950 nM.
Take `Cc1ccc(CN(C)c2ccc(CNC(=O)c3ccc4c(c3)[nH]c(=O)n4C)cn2)nc1` [Example 79]: the concentration for half-maximal inhibition (IC50) (Table 98) is 210 nM.
On to `Cn1c(=O)[nH]c2cc(C(=O)NCc3ccc(C(F)c4ccc(F)cc4)nc3)ccc21` (stereo not drawn) [Compound 16, N-((6-(Fluoro(4-fluorophenyl)methyl)pyridin-3-yl)methyl)-1-methyl-2-oxo-2,3-dihydro-1H-benzimidazole-5-carboxamide], for which the IC50 (Table 98) was 61 nM.
As for `Cn1c(=O)[nH]c2cc(C(=O)NCc3ccc(Oc4c(F)cc(F)cc4F)nc3)ccc21` [Example 42], the IC50 (Table 98) stood at 27 nM.
On to `C[C@H](NC(=O)c1ccc2c(c1)[nH]c(=O)n2C)c1ccc(N(C)c2ccc(F)cc2)nc1` [Compound 13, (S)—N-(1-(6-((4-Fluorophenyl)(methyl)amino)pyridin-3-yl)ethyl)-1-methyl-2-oxo-2,3-d ihydro-1H-benzimidazole-5-carboxamide], for which the IC50 (Table 98) was determined as 40 nM.
For `O=C(NCc1ccc(Nc2ccc(F)cc2)nc1)c1ccc2[nH]c(=O)[nH]c2c1` [Compound 8, N-((6-((4-Fluorophenyl)amino)pyridin-3-yl)methyl)-2-oxo-2,3-dihydro-1H-benzimidazole-5-carboxamide trifluoroacetate], the IC50 (Table 98) came out at 190 nM.
With `CC(C)N(C)c1ccc(C(NC(=O)c2ccc3c(c2)[nH]c(=O)n3C)c2ccccc2)cn1` (stereo not drawn) [Example 113, N-((6-(Isopropyl(methyl)amino)pyridin-3-yl)(phenyl)methyl)-1-methyl-2-oxo-2,3-dihydr o-1H-benzimidazole-5-carboxamide], the IC50 (Table 99) amounted to 2000 nM.
`Cn1c(=O)[nH]c2cc(C(=O)NCc3ccc(Oc4ccc5cn[nH]c5c4)nc3)ccc21` [Example 44]: the IC50 (Table 98) was determined as 120 nM.
Turning to `CN(CC1CC(F)(F)C1)c1ncc(CNC(=O)c2ccc3c(c2)[nH]c(=O)n3C)s1` [Example 93], the half-maximal inhibitory concentration (IC50) (Table 98) was found to be 270 nM.
As for `Cc1cc(CNC(=O)c2ccc3c(c2)[nH]c(=O)n3C)cnc1Oc1ccc(F)cc1` [Example 45], for the setting “Table 98”, the 50% inhibitory concentration (IC50) stood at 130 nM.
With `CC(C)Oc1ccc(CNC(=O)c2ccc3c(c2)[nH]c(=O)n3C)cn1` [Example 117], where the note is “Table 99”, the half-inhibitory concentration (IC50) was determined as 274 nM.
Consider `C[C@H](NC(=O)c1ccc2c(c1)[nH]c(=O)n2C)c1ccc(Oc2ccc(F)c(F)c2)nc1` [Compound 7, (S)—N-(1-(6-(3,4-Difluorophenoxy)pyridin-3-yl)ethyl)-1-methyl-2-oxo-2,3-dihydro-1H-benzimidazole-5-carboxamide], for which the IC50 (Table 98) stood at 40 nM.
For the compound `CC(NC(=O)c1ccc2c(c1)[nH]c(=O)n2C)c1ccc(Oc2ccc(F)cc2F)nc1` (stereo not drawn) [Compound 27, N-(1-(6-(2,4-Difluorophenoxy)pyridin-3-yl)ethyl)-1-methyl-2-oxo-2,3-dihydro-1H-benzi midazole-5-carboxamide], under “Table 98”, the IC50 came out at 74 nM.
For the compound `Cn1c(=O)[nH]c2cc(C(=O)NCc3ccc(Oc4cccc(C#N)c4)nc3)ccc21` [Compound 22, N-((6-(3-Cyanophenoxy)pyridin-3-yl)methyl)-1-methyl-2-oxo-2,3-dihydro-1H-benzimid azole-5-carboxamide trifluoroacetate], the IC50 (Table 98) worked out at 460 nM.
Still for that read-out and setting: the result for `Cn1c(=O)[nH]c2cc(C(=O)NCc3ccc(Oc4ccc5[nH]ncc5c4)nc3)ccc21` [Example 46] reads 27 nM; that for `Cn1c(=O)[nH]c2cc(C(=O)NCc3ccc(OC4CCC(F)(F)CC4)nc3)ccc21` [Example 47], 56 nM.
On to `Cn1c(=O)[nH]c2cc(C(=O)NCc3cnc(NC4CCC(F)(F)CC4)s3)ccc21` [Compound 25, N-((2-((4,4-Difluorocyclohexyl)amino)thiazol-5-yl)methyl)-1-methyl-2-oxo-2,3-dihydro-1H-benzimidazole-5-carboxamide], for which the half-maximal inhibitory concentration (IC50) (Table 98) was 360 nM.
Take `Cn1c(=O)[nH]c2cc(C(=O)NCc3cnc(Oc4ccc(F)cc4)s3)ccc21` [Compound 5, N-((2-(4-Fluorophenoxy)thiazol-5-yl)methyl)-1-methyl-2-oxo-2,3-dihydro-1H-benz imidazole-5-carboxamide]: where the note is “Table 98”, the IC50 is 3200 nM.
Consider `CN(Cc1ccccc1)c1ncc(CNC(=O)c2ccc3c(c2)[nH]c(=O)n3C)s1` [Example 91], for which, under “Table 98”, the half-inhibitory concentration (IC50) came to 120 nM.
For `C[C@H](NC(=O)c1ccc2c(c1)[nH]c(=O)n2C)c1ccc(Oc2ccc(Cl)cc2F)nc1` [Example 54], for the setting “Table 98”, the half-maximal inhibitory concentration (IC50) is 33 nM.
For `CC(c1ccc(CNC(=O)c2ccc3c(c2)[nH]c(=O)n3C)cn1)N1CCC(C(F)(F)F)C1` (stereo not drawn) [Example 112, 1-Methyl-2-oxo-N-((6-(1-(3-(trifluoromethyl)pyrrolidin-1-yl)ethyl)pyridin-3-yl)methyl)-2,3-dihydro-1H-benzimidazole-5-carboxamide], the “KIT % at single concentration (printed in KIT IC50 column)” value (@10 uM) was 59%@10 uM.
With `Cc1ccc(N(C)c2ccc(CNC(=O)c3ccc4c(c3)[nH]c(=O)n4C)cn2)cn1` [Example 63], where the note is “Table 98”, the half-maximal inhibitory concentration (IC50) is 37 nM.
In the case of `CC(NC(=O)c1ccc2c(c1)[nH]c(=O)n2C)c1ccc(N(C)C(C)C)nc1` (single isomer, unassigned) [130 Peak 2], the 50% inhibitory concentration (IC50) (Table 99) came to 1040 nM.
